IC50 data for three compounds are collected here from ChEMBL document CHEMBL1158323, “Biomimetic cyclization of cnicin to malacitanolide, a cytotoxic eudesmanolide from Centaurea malacitana” (J Nat Prod, 1997).

What is called IC50 is the concentration at which inhibition is half-maximal.

In brackets after ≈: the same amount, converted by molar mass.

Common to all, as to format: functional, cell-based
Assay [1] has as its system HT-29. Briefly: Cytotoxicity against human HT29 cells.
The nature of assay [2]: Cytotoxicity against mouse SCHABEL cells.
Assay [3] deals with A549. Nature of the assay: Cytotoxicity against human A549 cells.
The test system of assay [4] is SK-MEL-28. Nature of the assay: Cytotoxicity against human SK-MEL-28 cells.
The test system of assay [5] is P388. Briefly: Cytotoxicity against mouse P388 cells.

`C=C1C(=O)O[C@@H]2/C=C(\CO)CC/C=C(\C)C[C@H](OC(=O)/C(C)=C\COC(C)=O)[C@@H]12`: the IC50 was 5 µg/mL in assay [1]; 2.5 µg/mL (≈ 6.18 µM) in assay [2]; 5 µg/mL in assay [3]; 5 µg/mL (≈ 12.4 µM) in assay [4]; 2.5 µg/mL in assay [5].
Turning to `C=C1C(=O)O[C@H]2[C@H]1[C@@H](OC(=O)C(=C)[C@@H](O)CO)C[C@]1(C)[C@@H]2[C@@H](C=O)CC[C@H]1O` [MALACITANOLIDE], the IC50 worked out at 0.12 µg/mL in assay [1]; 0.12 µg/mL (≈ 0.304 µM) in assay [2]; 0.12 µg/mL in assay [3]; 0.12 µg/mL (≈ 0.304 µM) in assay [4]; 0.12 µg/mL in assay [5].
Regarding `C=C1C(=O)O[C@@H]2/C=C(\CO)CC/C=C(\C)C[C@H](OC(=O)C(=C)[C@H](O)CO)[C@@H]12` [CNICIN], the IC50 in assay [1] is 13.2 µM; in assay [3], 13.2 µM; in assay [5] it was 6.6 µM.
